Blank lines part the entries; values can stand above or below the compound they belong to. Active and inactive are the calls of the source.
Assays:
CAAX prenyl protease 2 [1] = molecular target: CAAX prenyl protease 2 (Saccharomyces cerevisiae S288c, UniProt Q03530); format: biochemical
CAAX prenyl protease 2 [2] = molecular target: T1, CAAX prenyl protease 2 (Homo sapiens, UniProt Q9Y256); assay: human Rce1 protease inhibitors, dose response, biochemical, yeast membranes, quenched-peptide fluorescence, cherry-pick (AID 588849)
T1 sequence (Q9Y256 whole entry): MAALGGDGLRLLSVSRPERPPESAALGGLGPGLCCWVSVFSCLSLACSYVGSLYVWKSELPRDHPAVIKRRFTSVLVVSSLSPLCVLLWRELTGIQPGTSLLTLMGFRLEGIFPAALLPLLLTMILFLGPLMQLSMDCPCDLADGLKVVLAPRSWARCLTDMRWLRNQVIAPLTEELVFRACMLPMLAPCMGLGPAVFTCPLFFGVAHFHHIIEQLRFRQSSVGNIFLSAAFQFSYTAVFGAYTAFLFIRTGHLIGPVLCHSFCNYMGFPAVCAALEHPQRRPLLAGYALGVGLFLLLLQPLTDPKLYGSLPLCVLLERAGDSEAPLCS

Cytochrome P450 2C19 = Cytochrome P450 2C19 (Homo sapiens, UniProt P33261); assay: Cytochrome panel assay with activity outcomes. Panel member name: p450-cyp2c19 Compounds with AC50 equal or less than 10 uM are considered active; format: functional; details: read-out: AC50
Cytochrome P450 2C9 = Cytochrome P450 2C9 (Homo sapiens, UniProt P11712)
Cytochrome P450 3A4 = Cytochrome P450 3A4 (Homo sapiens, UniProt P08684);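 also: CYP3A4 tested as one member of a cytochrome P450 panel screen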
Trypsin = Trypsin (Sus scrofa, UniProt P00761); assay: porcine trypsin inhibitors, dose response, selectivity assay for Rce1 protease inhibitor project, biochemical, quenched peptide fluorescence, cherry-pick (AID 488789)
Hexokinase HKDC1 = molecular target: T2, Hexokinase HKDC1 (Homo sapiens, UniProt Q2TB90); assay: HKDC1 hexokinase inhibitors, dose response, biochemical, W721R variant (AID 504729); format: functional
T2 sequence (Q2TB90 whole entry): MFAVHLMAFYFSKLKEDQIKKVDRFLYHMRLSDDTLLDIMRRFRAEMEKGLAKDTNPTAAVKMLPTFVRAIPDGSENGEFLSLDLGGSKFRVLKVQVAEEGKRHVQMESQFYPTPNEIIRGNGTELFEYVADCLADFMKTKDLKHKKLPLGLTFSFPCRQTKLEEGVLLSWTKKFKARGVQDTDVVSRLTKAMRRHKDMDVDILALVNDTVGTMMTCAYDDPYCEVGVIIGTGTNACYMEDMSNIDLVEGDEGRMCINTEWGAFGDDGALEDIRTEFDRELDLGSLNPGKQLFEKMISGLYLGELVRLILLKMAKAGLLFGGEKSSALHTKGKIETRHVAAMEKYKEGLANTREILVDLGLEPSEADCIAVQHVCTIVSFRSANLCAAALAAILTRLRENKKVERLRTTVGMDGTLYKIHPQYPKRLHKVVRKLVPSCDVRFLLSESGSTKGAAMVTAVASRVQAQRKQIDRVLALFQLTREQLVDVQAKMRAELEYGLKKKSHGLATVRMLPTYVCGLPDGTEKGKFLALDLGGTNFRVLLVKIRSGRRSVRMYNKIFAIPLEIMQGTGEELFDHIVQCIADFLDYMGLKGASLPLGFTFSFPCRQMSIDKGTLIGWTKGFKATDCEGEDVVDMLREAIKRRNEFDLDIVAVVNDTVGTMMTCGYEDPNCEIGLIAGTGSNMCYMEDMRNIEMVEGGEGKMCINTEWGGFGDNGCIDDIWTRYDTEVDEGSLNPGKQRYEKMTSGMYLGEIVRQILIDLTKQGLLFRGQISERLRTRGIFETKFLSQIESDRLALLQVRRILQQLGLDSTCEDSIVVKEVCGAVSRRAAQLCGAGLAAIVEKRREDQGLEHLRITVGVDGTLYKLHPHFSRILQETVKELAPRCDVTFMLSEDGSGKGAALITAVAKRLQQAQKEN

[3] = molecular target: T3, DNA dC->dU-editing enzyme APOBEC-3A (Homo sapiens, UniProt P31941); assay: Dose Response confirmation of small molecule APOBEC3A DNA Deaminase Inhibitors via a fluorescence-based single-stranded DNA deaminase assay. [Related pubchem assays (depositor defined):AID493011, AID493024]; format: functional
[4] = molecular target: T4, DNA dC->dU-editing enzyme APOBEC-3G (Homo sapiens, UniProt Q9HC16); format: functional
[5] = molecular target: G-protein coupled receptor 35 (Homo sapiens, UniProt Q9HC97); assay: SAR analysis of Antagonists of the GPR35 Receptor using an Image-Based Assay - Set 5. [Related pubchem assays (depositor defined):AID2058, AID2079]; format: functional
[6] = molecular target: G-protein coupled receptor 55 (Homo sapiens, UniProt Q9Y2T6); assay: SAR Analysis of Selective Antagonists of GPR55 using an Image-Based Assay - Set 3. [Related pubchem assays (depositor defined):AID2058, AID2079]; format: functional
[7] = molecular target: T4, DNA dC->dU-editing enzyme APOBEC-3G; assay: Dose Response confirmation of small molecule APOBEC3G DNA Deaminase Inhibitors via a fluorescence-based single-stranded DNA deaminase assay. [Related pubchem assays (depositor defined):AID493012, AID493028]; format: functional
[8] = molecular target: T3, DNA dC->dU-editing enzyme APOBEC-3A; assay: APOBEC3A DNA deaminase inhibitors, dose response, biochemical (AID 504722); format: functional

T4 sequence (Q9HC16 whole entry): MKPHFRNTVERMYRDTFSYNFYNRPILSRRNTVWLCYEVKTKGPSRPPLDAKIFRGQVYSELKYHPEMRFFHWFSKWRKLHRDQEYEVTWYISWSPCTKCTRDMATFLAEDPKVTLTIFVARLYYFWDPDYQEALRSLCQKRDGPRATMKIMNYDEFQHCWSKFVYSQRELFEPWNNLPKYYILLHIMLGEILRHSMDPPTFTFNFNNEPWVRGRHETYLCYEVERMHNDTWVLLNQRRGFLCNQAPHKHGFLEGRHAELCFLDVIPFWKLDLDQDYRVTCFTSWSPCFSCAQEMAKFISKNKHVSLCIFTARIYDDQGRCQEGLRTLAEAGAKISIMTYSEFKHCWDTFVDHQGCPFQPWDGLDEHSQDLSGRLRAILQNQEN
T3 sequence (P31941 whole entry): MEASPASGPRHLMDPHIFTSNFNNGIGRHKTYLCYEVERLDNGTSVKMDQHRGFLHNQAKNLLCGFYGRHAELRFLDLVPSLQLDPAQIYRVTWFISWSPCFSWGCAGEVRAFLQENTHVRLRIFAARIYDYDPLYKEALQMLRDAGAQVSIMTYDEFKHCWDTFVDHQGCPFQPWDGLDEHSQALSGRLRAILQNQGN
Sequence of Cytochrome P450 2C9 (P11712 whole entry): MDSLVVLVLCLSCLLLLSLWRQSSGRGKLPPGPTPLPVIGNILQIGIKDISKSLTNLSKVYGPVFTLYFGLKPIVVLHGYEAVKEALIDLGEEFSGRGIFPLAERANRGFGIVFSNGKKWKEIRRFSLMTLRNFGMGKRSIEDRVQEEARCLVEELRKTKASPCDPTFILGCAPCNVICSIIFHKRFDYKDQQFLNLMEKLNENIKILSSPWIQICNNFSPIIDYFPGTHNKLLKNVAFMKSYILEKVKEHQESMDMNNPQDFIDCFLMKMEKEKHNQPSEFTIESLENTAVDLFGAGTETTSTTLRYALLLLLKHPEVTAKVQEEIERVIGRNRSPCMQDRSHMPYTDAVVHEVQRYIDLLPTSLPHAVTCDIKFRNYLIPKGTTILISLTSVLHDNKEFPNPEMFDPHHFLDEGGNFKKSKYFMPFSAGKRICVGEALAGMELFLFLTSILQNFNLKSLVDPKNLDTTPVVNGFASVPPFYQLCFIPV
Sequence of G-protein coupled receptor 55 (Q9Y2T6 whole entry): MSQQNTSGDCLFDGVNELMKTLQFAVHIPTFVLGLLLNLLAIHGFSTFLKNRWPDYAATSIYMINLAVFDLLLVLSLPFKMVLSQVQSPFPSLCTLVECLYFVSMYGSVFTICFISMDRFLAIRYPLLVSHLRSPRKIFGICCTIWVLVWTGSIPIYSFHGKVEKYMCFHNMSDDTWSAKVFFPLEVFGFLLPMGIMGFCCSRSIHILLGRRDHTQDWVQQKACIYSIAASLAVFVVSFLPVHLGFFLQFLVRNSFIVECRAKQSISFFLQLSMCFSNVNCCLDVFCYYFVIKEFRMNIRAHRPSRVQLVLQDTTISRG
Sequence of Trypsin (P00761 whole entry): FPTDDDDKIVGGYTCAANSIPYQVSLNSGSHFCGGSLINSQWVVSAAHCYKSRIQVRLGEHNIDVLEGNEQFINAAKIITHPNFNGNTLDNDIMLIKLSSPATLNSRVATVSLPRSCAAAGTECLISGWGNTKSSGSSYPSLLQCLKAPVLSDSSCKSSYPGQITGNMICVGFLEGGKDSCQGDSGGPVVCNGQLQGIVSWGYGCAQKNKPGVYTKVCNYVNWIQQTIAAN
Sequence of Cytochrome P450 3A4 (P08684 whole entry): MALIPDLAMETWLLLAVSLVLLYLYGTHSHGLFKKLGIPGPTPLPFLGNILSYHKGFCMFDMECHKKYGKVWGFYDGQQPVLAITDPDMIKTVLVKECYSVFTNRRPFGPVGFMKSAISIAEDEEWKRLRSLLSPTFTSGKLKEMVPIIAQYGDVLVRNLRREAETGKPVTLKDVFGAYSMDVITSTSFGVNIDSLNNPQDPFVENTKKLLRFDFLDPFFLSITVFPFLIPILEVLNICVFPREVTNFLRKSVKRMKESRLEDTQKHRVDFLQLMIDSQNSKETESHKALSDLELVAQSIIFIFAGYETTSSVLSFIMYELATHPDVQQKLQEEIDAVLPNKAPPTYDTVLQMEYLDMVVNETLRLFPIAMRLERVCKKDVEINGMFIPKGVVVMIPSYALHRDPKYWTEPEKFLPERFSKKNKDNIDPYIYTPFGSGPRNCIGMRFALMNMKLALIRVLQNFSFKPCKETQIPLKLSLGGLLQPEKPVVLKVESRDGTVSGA
Sequence of G-protein coupled receptor 35 (Q9HC97 whole entry): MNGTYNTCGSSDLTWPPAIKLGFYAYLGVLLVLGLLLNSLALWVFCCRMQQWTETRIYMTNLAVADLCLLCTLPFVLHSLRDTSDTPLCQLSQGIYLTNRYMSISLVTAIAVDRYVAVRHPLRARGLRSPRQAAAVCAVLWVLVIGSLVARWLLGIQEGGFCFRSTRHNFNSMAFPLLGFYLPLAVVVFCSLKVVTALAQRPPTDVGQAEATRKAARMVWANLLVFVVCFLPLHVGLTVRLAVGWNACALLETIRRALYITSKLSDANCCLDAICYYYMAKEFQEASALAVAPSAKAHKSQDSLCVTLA
Sequence of Cytochrome P450 2C19 (P33261 whole entry): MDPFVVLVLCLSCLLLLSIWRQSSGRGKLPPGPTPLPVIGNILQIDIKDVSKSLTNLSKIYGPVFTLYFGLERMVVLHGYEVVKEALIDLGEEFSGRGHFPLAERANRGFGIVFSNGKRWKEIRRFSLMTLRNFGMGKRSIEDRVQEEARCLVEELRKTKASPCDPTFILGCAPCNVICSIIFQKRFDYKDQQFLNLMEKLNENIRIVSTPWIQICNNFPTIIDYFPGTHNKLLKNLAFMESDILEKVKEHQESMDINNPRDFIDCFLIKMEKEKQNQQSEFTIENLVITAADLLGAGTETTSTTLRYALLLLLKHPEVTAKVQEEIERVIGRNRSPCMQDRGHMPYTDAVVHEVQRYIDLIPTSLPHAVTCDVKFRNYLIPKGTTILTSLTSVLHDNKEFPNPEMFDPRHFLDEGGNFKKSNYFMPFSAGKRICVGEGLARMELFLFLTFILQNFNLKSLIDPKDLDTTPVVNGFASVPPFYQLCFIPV
Sequence of CAAX prenyl protease 2 (Saccharomyces cerevisiae S288c, UniProt Q03530) (Q03530 whole entry): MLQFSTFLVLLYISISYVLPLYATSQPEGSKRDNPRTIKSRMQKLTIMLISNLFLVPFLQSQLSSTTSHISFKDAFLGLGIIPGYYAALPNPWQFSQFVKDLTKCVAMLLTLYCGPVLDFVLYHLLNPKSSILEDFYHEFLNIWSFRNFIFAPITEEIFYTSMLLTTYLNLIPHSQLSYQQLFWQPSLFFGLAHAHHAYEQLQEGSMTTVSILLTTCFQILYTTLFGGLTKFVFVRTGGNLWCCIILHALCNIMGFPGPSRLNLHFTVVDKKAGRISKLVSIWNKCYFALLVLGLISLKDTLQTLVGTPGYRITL

SMILES: Cc1cccc(Nc2ccccc2C(=O)OCC(=O)N(C)C2CCS(=O)(=O)C2)c1C (stereo not drawn)
AC50 (CAAX prenyl protease 2 [1]): 3.45 µM (active)
AC50 (CAAX prenyl protease 2 [2]): 0.914 µM (active)
AC50 (Cytochrome P450 2C19): 28.2 µM (inconclusive)
AC50 (Cytochrome P450 2C9): 39.8 µM (inconclusive)
AC50 (Cytochrome P450 3A4): 28.2 µM (inconclusive)
AC50 (Trypsin): 15.5 µM (active)

SMILES: COc1ccc(C(=O)NC(C)c2nnc(SCc3ccc(Cl)c(Cl)c3)n2C)cc1 (stereo not drawn)
IC50 [3]: 3.87 µM (active)
IC50 [4]: 5.45 µM (active)

SMILES: COc1cccc(/C=N/n2c(S)nnc2-c2cc(C)[nH]n2)c1
IC50 [7]: 5.19 µM (active)
IC50 [8]: > 100 µM (inactive)

The remaining lines, values ahead:

IC50 (Hexokinase HKDC1): 26 µM (inactive)
SMILES: CCc1nc2sc3c(O)ncnc3c2c2c1CSC(C)(C)C2

IC50 [5]: > 32 µM (inactive)
IC50 [6]: > 32 µM (inactive)
SMILES: NC(=S)N/N=C/c1c[nH]nc1-c1ccccc1
